From patent US5962525A, “6,7-disubstituted-2-aminotetralines active as immunomodulators and pharmaceutical compositions containing same” (Sigma-Tau, priority 1990, dated 1999)
Where “and” joins values, the source holds several entries; their conditions need not be identical. Equal entries are not always repeated. Where two headings read alike, the source gives them in different places.

Columns and labels:
splenocytes = assay: "In vitro-ex vivo" effect on the mytogen (PHA, LPS)-induced splenocyte proliferation in mice; parameters: species or system mouse (B6 D2 F1); settings: 25 mg/kg/day i.p.
Method: Assessment of the "in vitro-ex vivo" effect of ST 557, ST 563, ST 608 on the mytogen (PHA, LPS)-induced splenocyte proliferation in mice
Male B6 D2 F1 mice aged 6-10 weeks (4 animals per group) were used.
The compounds were administered i.p. 25 mg/kg/day, from day -5 to -1 (spleen excision at day 0).
PHA (active on T lymphocytes) and LPS (active on B lymphocytes) were used as mytogens. Each mytogen was tested at three different concentrations (suboptimal, optimal, superoptimal): 0.5, 4 and 6 mcg/ml/well and 0.5, 150 and 500 mcg/ml/well, respectively.
The experimental procedure was conducted substantially as described by Kirchner et al., "Splenic suppressor macrophages induced in mice by injection of C. parvum", J. Immunol., 1975, 115: 1212.
In particular, the cell suspensions obtained from the spleens of the animals of the same group were pooled and the cell concentration was adjusted to 5×10^6 cells/ml.
To volumes of 0.1 ml of each sample, equal volumes of the mytogen preparations were added so as to obtain, for each mytogen, the previously indicated final concentrations.
Each sample was prepared in triplicate in U-bottom microtiters. A control, to which 0.1 ml of medium were added instead of the mytogen, was also prepared. The control permits the extent of spontaneous proliferation in the absence of stimulation to be assessed.
The samples were incubated at 37° C. for 48 hours and then they were pulsed with 20 μl ^3 H-TdR (25 μCi/ml).
After 18 hours of further incubation, the cells were collected on filters and counted in a beta-counter.
The results of each sample are expressed by calculating the value of the area under the curve (AUC) obtained by plotting the values of the incorporated radioactivity (in cpm) versus the various concentrations of each mytogen.
In addition to AUC, the stimulation index (SI) is also considered, that is defined as follows. [formula]

[1] = Tolerability after oral or intravenous administration; parameters: species or system mouse (Swiss albino); settings: mouse, in vivo, 7 days observation, read-out: Tolerability, dose
Method: The test was conducted in male Swiss albino mice weighing 22-24 g.
A group of animals (4 animals/dose) which had been kept fasting for 18 hours, were orally administered the compounds ST 557, ST 563, ST 564 and ST 570 dissolved in twice distilled water.
A further group of animals, which had free access to food and water, were administered intravenously the same compounds dissolved in saline it pH 7. All the animals were kept under observation for 7 days.

[2] = test system: peritoneal macrophages of treated mice; target tumor cells; assay: "In vitro-ex vivo" effect on the cytostatic activity of peritoneal macrophages; parameters: species or system mouse (B6 D2 F1); tumor targets human
Method: Assessment of the "in vitro-ex vivo" effect of ST 557, ST 563 and ST 570 on the cytostatic activity of peritoneal macrophages
Male B6 D2 F1 mice aged 7-9 weeks (5 animals per group) were used.
The compounds were administered i.p. (25 mg/kg/day), ST 557 and ST 563 were also administered per os (100 mg/kg/day) from day -5 to day -1 (peritoneal cell harvesting at day 0).
The macrophages and target tumor cell lines were prepared as in test 1 and their concentrations were adjusted to 1×10^6 M/ml and 5×10^4 cell/ml, respectively.
Volumes of tumor cells were added to the macrophage preparations so as to obtain Effector/Target ratios of 10:1, 20:1 and 40:1.
Each sample was pulsed with ^3 H-TdR for 18 hours in order to label the tumor cells, which were then collected on filters and counted in a beta-counter.
The macrophage cytostatic activity is expressed as percentage inhibition of tumor cell replication, by assessing the radioactivity incorporated by the tumor cells in each sample with respect to the maximum radioactivity incorporated by a sample consisting of tumor cells only. [formula]

LD50, intravenous = settings: mouse, in vivo, 0.9% saline
Method: LD50 was determined according to Carrol S. Weil's method, Biometrics, pages 249-263 (1952) in male Swiss albino mice weighing 22-24 g.
The various compounds dissolved in 0.9% saline were administered intravenously.

SMILES | S.I. (stimulation index) (splenocytes; LPS) | AUC (area under curve, incorporated radioactivity vs mytogen concentration) (splenocytes; PHA) | S.I. (stimulation index) (splenocytes; PHA) | MTD at 168 h ([1]; iv) | MTD at 168 h ([1]; po, os, fasting 18 hours) | % of inhibition of target tumor growth ([2]; E/T 10:1, 100 mg/kg/day os) | % of inhibition of target tumor growth ([2]; E/T 20:1, 25 mg/kg/day i.p.) | % of inhibition of target tumor growth ([2]; E/T 20:1, 100 mg/kg/day os) | % of inhibition of target tumor growth ([2]; E/T 40:1, 25 mg/kg/day i.p.) | % of inhibition of target tumor growth ([2]; E/T 40:1, 100 mg/kg/day os) | AUC (area under curve, incorporated radioactivity vs mytogen concentration) (splenocytes; LPS) | LD50 (LD50, intravenous)
COc1cc2c(cc1OC)CC(NCC(O)c1ccc(C)cc1)CC2 (stereo not drawn) [ST 563, 2-[(N-2-hydroxy-2-(4-methylphenyl)ethyl)amino]-6,7-dimethoxytetraline] | 1.13 and 0.95 | 179 ± 3 ×10^-3 and 256 ± 21 ×10^-3 and 139 ± 5 ×10^-3 | 1.09 and 1.28 and 1.12 | > 20 mg/kg | > 50 mg/kg | 25.0 ± 4.9% | 35.0 ± 1.6% | 47.3 ± 0.6% | 55.7 ± 1.4% | 62.8 ± 3.1% |  | 
COc1cc2c(cc1OC)CC(N(CC1CC1)CC1CC1)CC2 (stereo not drawn) [ST 557, 2-[(N,N-dicyclopropylmethyl)amino]-6,7-dimethoxytetraline] | 1.22 and 1.15 |  | 1.27 and 1.13 and 1.73 | > 4 mg/kg | > 20 mg/kg | 24.3 ± 2.2% | 45.1 ± 1.1% | 38.7 ± 1.6% | 68.9 ± 1.4% | 62.8 ± 3.1% | 10312 ± 1253 ×10^-3 and 18914 ± 389 ×10^-3 | 28.3 mg/kg
